Source: patent US8133998B2, “Bicyclic pyrimidine derivatives as calcium channel blockers” (Zalicus Pharmaceuticals, Ltd., priority 2007, dated 2012)

How the values were obtained:
Assay in all cases: T-type calcium channel block, whole cell patch clamp in HEK cells
Assay type in all cases: cell-based
[1] = target: T1, human α1G T-type channels (Homo sapiens, UniProt O43497); conditions: HEK cells stably expressing human α1G; measured at 1 μM drug; mainly non-inactivated protocol
T1 construct: expressed in transfected cells; host or cells: HEK 293
T1 sequence (O43497 whole entry): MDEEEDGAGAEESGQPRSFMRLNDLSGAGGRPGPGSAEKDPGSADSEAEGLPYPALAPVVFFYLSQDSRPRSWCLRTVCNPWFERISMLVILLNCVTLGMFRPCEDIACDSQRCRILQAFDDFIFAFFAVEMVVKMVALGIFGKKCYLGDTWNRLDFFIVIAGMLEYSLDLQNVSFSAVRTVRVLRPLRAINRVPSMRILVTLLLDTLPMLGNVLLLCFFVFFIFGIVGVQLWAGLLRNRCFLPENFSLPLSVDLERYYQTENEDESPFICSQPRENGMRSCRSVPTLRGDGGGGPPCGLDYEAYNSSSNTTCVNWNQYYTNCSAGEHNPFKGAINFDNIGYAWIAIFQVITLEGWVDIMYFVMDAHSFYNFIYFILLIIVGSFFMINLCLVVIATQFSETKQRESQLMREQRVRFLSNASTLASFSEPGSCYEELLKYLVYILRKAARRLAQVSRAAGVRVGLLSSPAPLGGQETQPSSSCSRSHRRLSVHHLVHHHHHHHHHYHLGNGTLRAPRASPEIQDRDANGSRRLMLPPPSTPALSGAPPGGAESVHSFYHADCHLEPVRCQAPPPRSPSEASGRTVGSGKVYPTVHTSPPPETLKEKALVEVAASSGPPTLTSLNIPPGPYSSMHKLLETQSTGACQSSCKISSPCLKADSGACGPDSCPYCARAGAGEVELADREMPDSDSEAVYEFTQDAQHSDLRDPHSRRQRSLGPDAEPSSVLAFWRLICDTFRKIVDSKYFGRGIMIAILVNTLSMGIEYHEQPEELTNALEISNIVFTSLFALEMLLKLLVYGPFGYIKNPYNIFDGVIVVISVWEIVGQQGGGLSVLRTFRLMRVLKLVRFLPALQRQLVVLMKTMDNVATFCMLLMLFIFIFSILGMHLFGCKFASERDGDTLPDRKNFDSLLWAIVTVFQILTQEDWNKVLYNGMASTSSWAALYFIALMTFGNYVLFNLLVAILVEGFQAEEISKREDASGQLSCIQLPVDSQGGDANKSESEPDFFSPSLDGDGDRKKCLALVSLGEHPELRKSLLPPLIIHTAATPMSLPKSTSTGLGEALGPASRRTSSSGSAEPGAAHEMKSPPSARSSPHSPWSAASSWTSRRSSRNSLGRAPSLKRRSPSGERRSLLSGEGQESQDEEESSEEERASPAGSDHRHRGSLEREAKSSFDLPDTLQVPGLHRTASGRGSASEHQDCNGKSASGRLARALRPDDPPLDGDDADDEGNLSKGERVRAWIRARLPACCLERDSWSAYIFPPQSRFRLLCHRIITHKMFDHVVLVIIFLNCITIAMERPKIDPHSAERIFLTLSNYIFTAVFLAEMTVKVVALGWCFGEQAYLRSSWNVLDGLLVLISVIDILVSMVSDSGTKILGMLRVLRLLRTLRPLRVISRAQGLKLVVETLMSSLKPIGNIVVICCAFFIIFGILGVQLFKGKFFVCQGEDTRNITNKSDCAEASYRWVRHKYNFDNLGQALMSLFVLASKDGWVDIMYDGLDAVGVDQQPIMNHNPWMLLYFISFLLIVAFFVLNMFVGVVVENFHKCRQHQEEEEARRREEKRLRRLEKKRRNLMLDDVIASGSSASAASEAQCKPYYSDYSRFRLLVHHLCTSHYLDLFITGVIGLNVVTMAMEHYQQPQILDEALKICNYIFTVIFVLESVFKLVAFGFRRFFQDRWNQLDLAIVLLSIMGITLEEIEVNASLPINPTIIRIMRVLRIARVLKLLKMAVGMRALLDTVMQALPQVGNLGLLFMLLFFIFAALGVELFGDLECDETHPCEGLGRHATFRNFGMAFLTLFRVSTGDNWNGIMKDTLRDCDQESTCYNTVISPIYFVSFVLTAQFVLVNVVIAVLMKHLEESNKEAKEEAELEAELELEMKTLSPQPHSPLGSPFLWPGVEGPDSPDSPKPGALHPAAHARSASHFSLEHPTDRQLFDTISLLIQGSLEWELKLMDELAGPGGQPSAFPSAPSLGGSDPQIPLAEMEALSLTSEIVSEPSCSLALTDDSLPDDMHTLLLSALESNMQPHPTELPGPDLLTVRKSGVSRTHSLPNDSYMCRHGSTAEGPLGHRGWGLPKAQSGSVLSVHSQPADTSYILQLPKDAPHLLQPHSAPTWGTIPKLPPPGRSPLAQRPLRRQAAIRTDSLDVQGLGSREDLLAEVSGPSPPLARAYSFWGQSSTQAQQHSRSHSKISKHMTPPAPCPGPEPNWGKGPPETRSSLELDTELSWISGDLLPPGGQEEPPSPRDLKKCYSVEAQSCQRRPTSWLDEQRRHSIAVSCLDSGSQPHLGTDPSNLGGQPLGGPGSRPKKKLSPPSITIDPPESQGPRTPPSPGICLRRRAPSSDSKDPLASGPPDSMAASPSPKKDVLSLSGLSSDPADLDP
Description: (§1) T-type calcium channel blocking activity was assayed in human embryonic kidney cells, HEK 293, stably transfected with the T-type calcium channel subunits. Briefly, cells were cultured in Dulbecco's modified eagle medium (DMEM) supplemented with 10% fetal bovine serum, 200 U/ml penicillin and 0.2 mg/ml streptomycin at 37° C. with 5% CO2. At 85% confluency cells were split with 0.25% trypsin/1 mM EDTA and plated at 10% confluency on glass coverslips. At 12 hours the medium was replaced and the cells stably transfected using a standard calcium phosphate protocol and the appropriate calcium channel cDNA's. Fresh DMEM was supplied and the cells transferred to 28° C./5% CO2. Cells were incubated for 1 to 2 days prior to whole cell recording.
(§2) Standard patch-clamp techniques were employed to identify blockers of T-type currents. Briefly, previously described HEK cell lines stably expressing human α1G, α1H and α1I T-type channels were used for all the recordings (passage #: 4-20, 37° C., 5% CO2). Whole cell patch clamp experiments were performed using an Axopatch 200B amplifier (Axon Instruments, Burlingame, Calif.) linked to a personal computer equipped with pCLAMP software. Data were analyzed using Clampfit (Axon Instruments) and SigmaPlot 4.0 (Jandel Scientific). To obtain T-type currents, plastic dishes containing semi-confluent cells were positioned on the stage of a ZEISS AXIOVERT S100 microscope after replacing the culture medium with external solution (see below). Whole-cell patches were obtained using pipettes (borosilicate glass with filament, O.D.: 1.5 mm, I.D.: 0.86 mm, 10 cm length), fabricated on a SUTTER P-97 puller with resistance values of ˜5 MΩ (see below for internal solution).
(§3) In the non-inactivating protocol, the holding potential is set at −110 mV and with a pre-pulse at −100 mV for 1 second prior to the test pulse at −40 mV for 50 ms. In the inactivation protocol, the pre-pulse is at approximately −85 mV for 1 second, which inactivates about 15% of the T-type channels.
(§4) Test compounds were dissolved in external solution, 0.1-0.01% DMSO. After ˜10 min rest, they were applied by gravity close to the cell using a WPI microfil tubing. The “non-inactivated” pre-pulse was used to examine the resting block of a compound. The “inactivated” protocol was employed to study voltage-dependent block. However, the initial data shown below were mainly obtained using the non-inactivated protocol only. Kd values are shown for various compounds of the invention in Table 4 measured at 1 μM for the drug of interest except for compound 18 which was measured at 200 nM.

[2] = target: T2, human α1H T-type channels (Homo sapiens, UniProt O95180); conditions: HEK cells stably expressing human α1H; measured at 1 μM drug; mainly non-inactivated protocol
T2 construct: expressed in transfected cells; host or cells: HEK 293
Description: as §1, §2, §3, §4

[3] = target: T3, human α1I T-type channels (Homo sapiens, UniProt Q9P0X4); conditions: HEK cells stably expressing human α1I; measured at 1 μM drug; mainly non-inactivated protocol
T3 construct: expressed in transfected cells; host or cells: HEK 293
T3 sequence (Q9P0X4 whole entry): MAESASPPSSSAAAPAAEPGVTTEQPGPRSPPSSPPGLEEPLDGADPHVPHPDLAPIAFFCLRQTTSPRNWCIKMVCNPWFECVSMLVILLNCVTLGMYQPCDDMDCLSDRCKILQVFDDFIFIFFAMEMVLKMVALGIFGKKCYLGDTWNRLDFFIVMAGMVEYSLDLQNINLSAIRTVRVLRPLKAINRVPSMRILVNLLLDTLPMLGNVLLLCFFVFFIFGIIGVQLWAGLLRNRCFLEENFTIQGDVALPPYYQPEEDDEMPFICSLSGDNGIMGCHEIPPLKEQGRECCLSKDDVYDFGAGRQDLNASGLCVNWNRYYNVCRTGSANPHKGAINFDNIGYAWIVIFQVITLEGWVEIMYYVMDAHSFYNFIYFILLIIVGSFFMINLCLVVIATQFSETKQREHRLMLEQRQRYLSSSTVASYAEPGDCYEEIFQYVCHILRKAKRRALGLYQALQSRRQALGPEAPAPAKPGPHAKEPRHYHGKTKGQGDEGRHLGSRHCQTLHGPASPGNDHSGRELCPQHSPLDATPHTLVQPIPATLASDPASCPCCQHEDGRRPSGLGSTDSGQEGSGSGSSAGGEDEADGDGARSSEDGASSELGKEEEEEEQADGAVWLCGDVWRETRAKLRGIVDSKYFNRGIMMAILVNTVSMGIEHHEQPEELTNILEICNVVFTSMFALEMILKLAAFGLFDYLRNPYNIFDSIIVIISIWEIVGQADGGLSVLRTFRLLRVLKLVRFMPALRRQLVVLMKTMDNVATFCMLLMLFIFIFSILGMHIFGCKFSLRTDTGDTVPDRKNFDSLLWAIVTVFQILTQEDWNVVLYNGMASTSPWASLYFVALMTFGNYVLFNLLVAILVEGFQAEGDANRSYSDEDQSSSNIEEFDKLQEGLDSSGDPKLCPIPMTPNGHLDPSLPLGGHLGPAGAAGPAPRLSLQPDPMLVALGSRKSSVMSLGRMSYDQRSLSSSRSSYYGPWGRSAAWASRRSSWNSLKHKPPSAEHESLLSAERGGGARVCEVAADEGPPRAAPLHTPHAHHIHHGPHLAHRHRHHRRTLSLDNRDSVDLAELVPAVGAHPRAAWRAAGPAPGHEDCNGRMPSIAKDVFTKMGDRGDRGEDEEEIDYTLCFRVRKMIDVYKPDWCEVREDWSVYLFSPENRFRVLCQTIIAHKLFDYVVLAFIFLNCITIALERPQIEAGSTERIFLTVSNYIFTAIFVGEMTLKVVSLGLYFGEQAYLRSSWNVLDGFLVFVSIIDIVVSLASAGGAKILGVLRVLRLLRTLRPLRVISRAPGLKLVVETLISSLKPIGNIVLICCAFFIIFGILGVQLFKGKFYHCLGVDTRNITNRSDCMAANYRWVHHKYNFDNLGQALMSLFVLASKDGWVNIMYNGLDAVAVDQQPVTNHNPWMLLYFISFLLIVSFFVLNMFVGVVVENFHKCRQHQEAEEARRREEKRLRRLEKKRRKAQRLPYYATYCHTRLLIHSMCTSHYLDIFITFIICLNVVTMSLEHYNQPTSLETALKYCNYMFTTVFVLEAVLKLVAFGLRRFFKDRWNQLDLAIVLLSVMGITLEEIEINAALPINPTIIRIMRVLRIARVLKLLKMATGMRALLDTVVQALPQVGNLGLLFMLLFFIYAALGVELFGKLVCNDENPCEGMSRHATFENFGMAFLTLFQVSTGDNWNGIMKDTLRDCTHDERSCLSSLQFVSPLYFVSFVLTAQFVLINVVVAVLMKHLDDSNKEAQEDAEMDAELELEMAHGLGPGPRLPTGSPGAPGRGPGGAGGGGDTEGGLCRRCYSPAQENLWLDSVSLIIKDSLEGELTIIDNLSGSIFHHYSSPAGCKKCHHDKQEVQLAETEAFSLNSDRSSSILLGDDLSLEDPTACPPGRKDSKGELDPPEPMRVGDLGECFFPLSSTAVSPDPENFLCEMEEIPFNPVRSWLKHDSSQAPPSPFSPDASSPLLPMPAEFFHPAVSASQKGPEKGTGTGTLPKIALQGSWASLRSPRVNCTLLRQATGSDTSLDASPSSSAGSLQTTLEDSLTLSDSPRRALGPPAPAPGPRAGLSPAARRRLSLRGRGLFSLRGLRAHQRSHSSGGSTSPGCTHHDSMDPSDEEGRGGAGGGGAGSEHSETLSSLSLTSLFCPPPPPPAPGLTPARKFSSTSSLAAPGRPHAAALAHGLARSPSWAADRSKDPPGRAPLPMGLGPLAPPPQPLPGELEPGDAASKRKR
Description: as §1, §2, §3, §4

CCN(CC(F)(F)F)C(=O)Cn1cnc2sc(C(=O)N3CCN(c4cccc(Cl)c4)CC3)c(C)c2c1=O [Compound 127, 2-(6-(4-(3-chlorophenyl)piperazine-1-carbonyl)-5-methyl-4-oxothieno[2,3-d]pyrimidin-3(4H)-yl)-N-ethyl-N-(2,2,2-trifluoroethyl)acetamide]
Kd [1]: 1150 nM | Kd [2]: 630 nM

Cc1c(C(=O)N2CCN(c3ccccc3)CC2)sc2ncn(CC(=O)Nc3ccccc3)c(=O)c12 [Compound 52, 2-(5-methyl-4-oxo-6-(4-phenylpiperazine-1-carbonyl)thieno[2,3-d]pyrimidin-3(4H)-yl)-N-phenylacetamide]
Kd [1]: 1010 nM | Kd [2]: 350 nM | Kd [3]: 8790 nM

Cc1c(C(=O)N2CCN(c3cccc(Cl)c3)CC2)sc2ncn(CC(=O)NC(C)(C)C)c(=O)c12 [Compound 16, N-tert-butyl-2-(6-(4-(3-chlorophenyl)piperazine-1-carbonyl)-5-methyl-4-oxothieno[2,3-d]pyrimidin-3(4H)-yl)acetamide]
Kd [1]: 1370 nM | Kd [2]: 630 nM

Cc1c(C(=O)N2CCN(c3ccc(Cl)cc3)CC2)sc2ncn(CC(=O)NC(C)(C)C)c(=O)c12 [Compound 15, N-tert-butyl-2-(6-(4-(4-chlorophenyl)piperazine-1-carbonyl)-5-methyl-4-oxothieno[2,3-d]pyrimidin-3(4H)-yl)acetamide]
Kd [1]: 2370 nM | Kd [2]: 870 nM

CCN(CC)C(=O)Cn1cnc2sc(C(=O)N3CCN(c4ccc(C(F)(F)F)cc4)CC3)c(C)c2c1=O [Compound 10, N,N-diethyl-2-(5-methyl-4-oxo-6-(4-(4-(trifluoromethyl)phenyl)piperazine-1-carbonyl)thieno[2,3-d]pyrimidin-3(4H)-yl)acetamide]
Kd [1]: 1220 nM | Kd [2]: 300 nM | Kd [3]: > 31300 nM

Cc1c(C(=O)N2CCN(c3cccc(Cl)c3)CC2)sc2ncn(CC(=O)Nc3ccc(F)cc3F)c(=O)c12 [Compound 140, 2-(6-(4-(3-chlorophenyl)piperazine-1-carbonyl)-5-methyl-4-oxothieno[2,3-d]pyrimidin-3(4H)-yl)-N-(2,4 difluorophenyl)acetamide]
Kd [1]: 360 nM | Kd [2]: 180 nM | Kd [3]: 4990 nM

Cc1c(C(=O)N2CCN(c3cccc(C(F)(F)F)c3)CC2)sc2ncn(CC(=O)NC(C)(C)C)c(=O)c12 [Compound 12, N-tert-butyl-2-(5-methyl-4-oxo-6-(4-(3-(trifluoromethyl)phenyl)piperazine-1-carbonyl)thieno[2,3-d]pyrimidin-3(4H)-yl)acetamide]
Kd [1]: 1960 nM | Kd [2]: 1060 nM

Cc1c(C(=O)N2CCN(c3ccc(F)c(Cl)c3)CC2)sc2ncn(CC(=O)N3CC[C@H](F)C3)c(=O)c12 [Compound 137, (S)-6-(4-(3-chloro-4-fluoro-phenyl)piperazine-1-carbonyl)-3-(2-(3-fluoro-pyrrolidin-1-yl)-2-oxoethyl)-5-methyl-thieno[2,3-d]pyrimidin-4(3H)-one]
Kd [1]: 1800 nM | Kd [2]: > 8440 nM

CCN(CC)C(=O)Cn1cnc2sc(C(=O)N3CCN(c4cccc(Cl)c4)CC3)c(C)c2c1=O [Compound 1, 2-(6-(4-(3-chlorophenyl)piperazine-1-carbonyl)-5-methyl-4-oxothieno[2,3-d]pyrimidin-3(4H)-yl)-N,N-diethylacetamide]
Kd [1]: 2440 nM | Kd [2]: 890 nM

Cc1c(C(=O)N2CCN(c3ccccc3F)CC2)sc2ncn(CC(=O)N3CCCCC3)c(=O)c12 [Compound 81, 6-(4-(2-fluorophenyl)piperazine-1-carbonyl)-5-methyl-3-(2-oxo-2-(piperidin-1-yl)ethyl)thieno[2,3-d]pyrimidin-4(3H)-one]
Kd [1]: 1680 nM | Kd [2]: 720 nM

CCN(CC)C(=O)Cn1cnc2sc(C(=O)N3CCN(c4ccc(Cl)cc4)CC3)c(C)c2c1=O [Compound 5, 2-(6-(4-(4-chlorophenyl)piperazine-1-carbonyl)-5-methyl-4-oxothieno[2,3-d]pyrimidin-3(4H)-yl)-N,N-diethylacetamide]
Kd [1]: 1230 nM | Kd [2]: 620 nM

Cc1c(C(=O)N2CCN(c3ccc(F)c(Cl)c3)CC2)sc2ncn(CC(=O)N3CCCC3)c(=O)c12 [Compound 134, 6-(4-(3-chloro-4-fluoro-phenyl)piperazine-1-carbonyl)-5-methyl-3-(2-oxo-2-(pyrrolidin-1-yl)ethyl)thieno[2,3-d]pyri-midin-4(3H)-one]
Kd [1]: 510 nM | Kd [2]: 18200 nM

Cc1c(C(=O)N2CCN(c3ccc(F)cc3)CC2)sc2ncn(CC(=O)NC3CCCCC3)c(=O)c12 [Compound 22, N-cyclohexyl-2-(6-(4-(4-fluorophenyl)piperazine-1-carbonyl)-5-methyl-4-oxothieno[2,3-d]pyrimidin-3(4H)-yl)acetamide]
Kd [1]: 1360 nM | Kd [2]: 430 nM

Cc1c(C(=O)N2CCN(c3cc(C(F)(F)F)cc(C(F)(F)F)c3)CC2)sc2ncn(CC(=O)NC(C)(C)C)c(=O)c12 [Compound 17, 2-(6-(4-(3,5-bis(trifluoromethyl)phenyl)piperazine-1-carbonyl)-5-methyl-4-oxothieno[2,3-d]pyrimidin-3(4H)-yl)-N-tert-butylacetamide]
Kd [1]: 510 nM | Kd [2]: 500 nM

Cc1c(C(=O)N2CCN(c3cccc(Cl)c3)CC2)sc2ncn(CC(=O)N3CCC(F)(F)C3)c(=O)c12 [Compound 78, 6-(4-(3-chlorophenyl)-piperazine-1-carbonyl)-3-(2-(3,3-difluoropyrrolidin-1-yl)-2-oxoethyl)-5-methylthieno[2,3-d]pyrimidin-4(3H)-one]
Kd [1]: 620 nM | Kd [2]: 400 nM

Cc1c(C(=O)N2CCN(c3ccccc3F)CC2)sc2ncn(CC(=O)NC3CCCC3)c(=O)c12 [Compound 36, N-cyclopentyl-2-(6-(4-(2-fluorophenyl)piperazine-1-carbonyl)-5-methyl-4-oxothieno[2,3-d]pyrimidin-3(4H)-yl)acetamide]
Kd [1]: 1720 nM | Kd [2]: 750 nM

Cc1c(C(=O)N2CCN(c3ccccc3F)CC2)sc2ncn(CC(=O)Nc3ccc(C(F)(F)F)cc3)c(=O)c12 [Compound 142, 2-(6-(4-(2-fluorophenyl)piperazine-1-carbonyl)-5-methyl-4-oxothieno[2,3-d]pyrimidin-3(4H)-yl)-N-(4-(trifluoromethyl)phenyl)acetamide]
Kd [1]: 1160 nM | Kd [2]: 700 nM

Cc1c(C(=O)N2CCN(c3ccccc3F)CC2)sc2ncn(CC(=O)N3CCC(C(F)(F)F)CC3)c(=O)c12 [Compound 89, 6-(4-(2-fluorophenyl)piperazine-1-carbonyl)-5-methyl-3-(2-oxo-2-((4-trifluoromethyl)piperidin-1-yl)ethyl) thieno[2,3-d]pyrimidin-4(3H)-one]
Kd [1]: 630 nM | Kd [2]: 420 nM

CCN(CC)C(=O)Cn1cnc2sc(C(=O)N3CCN(c4ccc(Cl)c(C(F)(F)F)c4)CC3)c(C)c2c1=O [Compound 8, 2-(6-(4-(4-chloro-3-(trifluoromethyl)phenyl)piperazine-1-carbonyl)-5-methyl-4-oxothieno[2,3-d]pyrimidin-3(4H)-yl)-N,N-diethylacetamide]
Kd [1]: 450 nM | Kd [2]: 540 nM

CCN(CC(F)(F)F)C(=O)Cn1cnc2sc(C(=O)N3CCN(c4ccc(C(F)(F)F)cc4)CC3)c(C)c2c1=O [Compound 130, N-ethyl-2-(5-methyl-4-oxo-6-(4-(4-(trifluromethyl)phenyl)piperazine-1-carbonyl)thieno[2,3-d]pyrimidin-3(4H)-yl)-N-(2,2,2-trifluoroethyl)acetamide]
Kd [1]: 3470 nM | Kd [2]: 390 nM
